Experiments:
AML cell lines (OCIAML5) = assay: Cancer cell line growth inhibition (Cell-titer glo, GI50, day 3 and day 7), compound 17; assay type: cell-based; conditions: compound 17, 0 to 10 micromolar
[1] = tested on: AML cell lines (OCIAML5, KASUMI1); assay: Cancer cell line growth inhibition (Cell-titer glo, GI50, day 3 and day 7), compound 18; assay type: cell-based; conditions: compound 18, 0 to 10 micromolar
Method: Procedure: Uveal melanoma cell lines (92-1, MP41, MP38, MP46), prostate cancer cell lines (LNCAP), lung cancer cell lines (NCIH1299), and immortalized embryonic kidney lines (HEK293T) were plated into 96 well plates with growth media (see Table 1). […] Cells were incubated at 37° C. for 3 days. After 3 days of treatment, the media was removed from the cells, and 30 microliters of TrypLE (Gibco) was added to cells for 10 minutes. Cells were detached from the plates and resuspended with the addition of 170 microliters of growth media. Cells from two DMSO-treated control wells were counted, and the initial number of cells plated at the start of the experiment, were re-plated into fresh-compound containing plates for an additional four days at 37° C. At day 7, cells were harvested as described above.
On day 3 and day 7, relative cell growth was measured by the addition of Cell-titer glo (Promega), and luminescence was measured on an Envision plate reader (Perkin Elmer).
At the time of cell splitting on days 3 and 7, cells were split into new 96 well plates, and fresh compound was added four hours after re-plating.
Procedure: All cell lines described above in Example 2 were also tested as described above with compound 18. In addition, the following cell lines were also tested as follows. […]

[2] = tested on: MV4;11 human AML tumor cells; assay: Subcutaneous MV4;11 tumor growth in vivo; design: species or system BALB/c Nude mice; conditions: 50 mg/kg daily for 21 days, oral route
Method: (§1) Method: BALB/c Nude mice (Beijing Anikeeper Biotech, Beijing) were inoculated subcutaneously on the right flank with the single cell suspension of EOL-1 or MV4;11 human AML tumor cells (1×10^7) in 100 μL IDMD in 10% Fetal Bovine Serum (FBS). When tumor size reach ˜100 mm3, the mice were randomized into either Vehicle group [20% HP-β-CD) or Treatment group: Compound 19 at 50 mg/kg daily for 21 days per oral route. All dose volumes were adjusted by body weights in terms of mg/kg.

[3] = tested on: EOL-1 human AML tumor cells; assay: Subcutaneous EOL-1 tumor growth in vivo; design: species or system BALB/c Nude mice; conditions: 50 mg/kg daily for 21 days, oral route
Method: as §1

[4] = Tolerability by % body weight change in EOL-1 or MV4;11 tumor-bearing mice; assay type: in vivo; conditions: 50 mg/kg daily for 21 days, oral route; MV4;11 and EOL-1 models
Method: as §1

[5] = tested on: OCI-AML2 human AML tumor cells; assay: Subcutaneous OCI-AML2 tumor growth in vivo; design: species or system SCID mice; conditions: 1.5 mg/kg daily for 21 days, oral route; tumor carries a DNMT3A mutation
Method: (§2) Method: SCID mice (Charles River, Wilmington) were inoculated subcutaneously on the right flank with the single cell suspension of OCI-AML2 human AML tumor cells (1×10^7) in 100 μL in RPMI-1640 media. When tumor size reach ˜100 mm^3, the mice were randomized into either Vehicle group (20% HP-β-CD) or Treatment group (Compound 20 at 1.5 mg/kg daily for 21 days per oral route). All dose volumes were adjusted by body weights in terms of mg/kg.

[6] = Tolerability by % body weight change in OCI-AML2 tumor-bearing mice; assay type: in vivo; conditions: 1.5 mg/kg daily for 21 days, oral route
Method: as §2

Structure (SMILES): CSCC[C@H](NC(=O)c1ccc(N)cc1)C(=O)Nc1nc(-c2cccc(-c3ccncc3)c2)cs1 [Compound 17, 4-amino-N-[(1S)-3-methylsulfanyl-1-[[4-[3-(4-pyridyl)phenyl]thiazol-2-yl]carbamoyl]propyl]benzamide]
- Duration of inhibition of the AML cell lines (FIG. 1) (AML cell lines (OCIAML5)): maintained through day 7

Structure (SMILES): CSCC[C@H](NC(=O)c1ccn(S(C)(=O)=O)c1)C(=O)Nc1nc(-c2cccc(-c3ccncc3)c2)cs1 [Compound 18, (S)-1-(methylsulfonyl)-N-(4-(methylthio)-1-oxo-1-((4-(3-(pyridin-4-yl)phenyl)thiazol-2-yl)amino)butan-2-yl)-1H-pyrrole-3-carboxamide]
- Duration of inhibition of the AML cell lines (FIG. 2) [1]: maintained through day 7
- Sensitivity of the AML cell lines relative to the other tested cell lines (GI50, FIG. 2) ([1]; day 3 and day 7): more sensitive to BRG1/BRM inhibition than the other tested cell lines

Structure (SMILES): C[C@@H]1CN(c2cccc(-c3csc(NC(=O)CNC(=O)c4ccn(C(C)(C)C)c4)n3)n2)C[C@H](C)O1 [Compound 19, 1-(tert-butyl)-N-(2-((4-(6-(cis-2,6-dimethylmorpholino)pyridin-2-yl)thiazol-2-yl)amino)-2-oxoethyl)-1H-pyrrole-3-carboxamide]
- Effect on MV4;11 tumor growth (FIG. 4) [2]: tumor stasis
- Effect on EOL-1 tumor growth (FIG. 5) [3]: delayed the growth
- Tolerability based on % body weight change [4]: well tolerated

Structure (SMILES): COC[C@H](NC(=O)c1ccn(S(C)(=O)=O)c1)C(=O)Nc1nc(-c2cccc(N3C[C@@H](C)O[C@@H](C)C3)n2)cs1 [Compound 20, N—((S)-1-((4-(6-(cis-2,6-dimethylmorpholino)pyridin-2-yl)thiazol-2-yl)amino)-3-methoxy-1-oxopropan-2-yl)-1-(methylsulfonyl)-1H-pyrrole-3-carboxamide]
- Effect on OCI-AML2 tumor growth (FIG. 6) [5]: inhibited the growth
- Tolerability based on % body weight change [6]: well tolerated

Source: patent US12383555B2, “Methods of treating cancers” (Foghorn Therapeutics Inc., priority 2020, dated 2025)
